ChEMBL document CHEMBL1201862, “PubChem BioAssay data set” (2004)
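Dose response: 5 concentrations. Exposure: 48 h. Format: 96-well plates. Endpoint: linear interpolation; highest concentration if not reached. Here, GI50 denotes the concentration required for 50% inhibition of growth.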 Calls of active or inactive are those of the source. Rule as the data show it: active = GI50 up to about 1.1 µM and inactive = higher.

Assays:
Experiment in all cases: NCI-60 cell line screen, 48 h
DLD-1 = tested on: DLD-1
HOP-18 = tested on: HOP-18
KM-20L2 = tested on: KM-20L2
SNB-78 = tested on: SNB-78
DMS-273 = tested on: DMS-273
XF498 = tested on: XF498
LXFL 529 = tested on: LXFL 529
M19-MEL = tested on: M19-MEL
RXF 631 = tested on: RXF 631

Measured: GI50

CCCC(=O)CC(C)C(=O)C(=O)NC12CC3CC(CC(C3)C1)C2 (configuration not stated)
inactive: DLD-1 > 100 µM | HOP-18 > 100 µM | KM-20L2 > 100 µM | SNB-78 > 100 µM | DMS-273 > 100 µM | XF498 > 100 µM

COC(=O)c1c2c(c(-c3ccccc3)c3c1-c1nc(Cl)ccc1CC3)CCc1ccc(Cl)nc1-2
inactive: LXFL 529 > 100 µM | M19-MEL > 100 µM | DLD-1 > 100 µM | HOP-18 > 100 µM | RXF 631 > 100 µM | KM-20L2 > 100 µM | SNB-78 37.9 µM

O=c1cc(-c2ccccc2)[nH]c2c(F)ccc(F)c12
inactive: LXFL 529 68.5 µM | M19-MEL 41.4 µM | DLD-1 > 100 µM | HOP-18 > 100 µM | DMS-273 24.3 µM

COc1ccc2c(c1)CCc1cnn(C3OC(COC(C)=O)C(OC(C)=O)C(OC(C)=O)C3OC(C)=O)c1-2 (configuration not stated)
inactive: LXFL 529 19.1 µM | M19-MEL 66.2 µM | DLD-1 46.8 µM | RXF 631 > 100 µM | KM-20L2 22.5 µM | SNB-78 > 100 µM | DMS-273 > 100 µM | XF498 22.6 µM

NC(=O)c1ncn2c(=O)n(CCCl)nnc12 [MITOZOLOMIDE]
inactive: LXFL 529 > 100 µM | M19-MEL 172 µM | DLD-1 182 µM | HOP-18 323 µM | KM-20L2 141 µM | SNB-78 185 µM | DMS-273 57.4 µM | XF498 12.1 µM

COc1ccc(C(=O)C(c2ccc(OC)cc2)C2(O)C(=O)Nc3ccc([N+](=O)[O-])cc32)cc1 (configuration not stated)
inactive: LXFL 529 > 100 µM | M19-MEL > 100 µM | DLD-1 > 100 µM | KM-20L2 > 100 µM | SNB-78 > 100 µM | DMS-273 > 100 µM

O=C(NCCCCCCCCCCCCNC(=O)c1cnc2ccccc2n1)c1cnc2ccccc2n1
inactive: LXFL 529 33.7 µM | M19-MEL > 100 µM | DLD-1 > 100 µM | HOP-18 20.7 µM | RXF 631 99.5 µM | KM-20L2 > 100 µM | SNB-78 76.9 µM | DMS-273 64.6 µM

CCOc1cc2c(cnc3c4cc(OC)c(OC)cc4ccc23)cc1OC
inactive: LXFL 529 > 100 µM | M19-MEL > 100 µM | DLD-1 > 100 µM | KM-20L2 > 100 µM | XF498 > 100 µM

CC(N)Cc1ccc(Cl)c(Cl)c1 (configuration not stated)
inactive: LXFL 529 19.1 µM | M19-MEL 24.2 µM | DLD-1 34.4 µM | HOP-18 27.8 µM | KM-20L2 22.9 µM | SNB-78 28.4 µM | DMS-273 39.4 µM | XF498 10.9 µM

O=C(CP(=O)(O)O)c1cccs1
inactive: LXFL 529 > 100 µM | M19-MEL > 100 µM | DLD-1 > 100 µM | HOP-18 > 100 µM | KM-20L2 > 100 µM | SNB-78 > 100 µM | DMS-273 > 100 µM

CCOC(=O)/C=C/c1ccccn1
inactive: LXFL 529 > 100 µM | M19-MEL > 100 µM | DLD-1 > 100 µM | HOP-18 > 100 µM | RXF 631 > 100 µM | SNB-78 > 100 µM | XF498 > 100 µM

CN(C)NC(=S)NC12CC3CC(CC(C3)C1)C2
inactive: LXFL 529 > 100 µM | M19-MEL > 100 µM | DLD-1 > 100 µM | HOP-18 > 100 µM | KM-20L2 > 100 µM | SNB-78 > 100 µM | DMS-273 > 100 µM | XF498 > 100 µM

COc1ccc(NC(=O)CC(=O)N2N=C(N(CCC#N)c3cccc(C)c3)CC2c2ccccc2)cc1 (configuration not stated)
inactive: LXFL 529 > 100 µM | M19-MEL > 100 µM | DLD-1 > 100 µM | HOP-18 > 100 µM | KM-20L2 > 100 µM | SNB-78 > 100 µM | DMS-273 > 100 µM

CC(=O)Nc1ccc(/C=C2\N=C(c3ccccc3)OC2=O)cc1
inactive: LXFL 529 > 100 µM | DLD-1 > 100 µM | HOP-18 > 100 µM | KM-20L2 > 100 µM

O=C1CCCCC1C1(O)C(=O)Nc2cc(F)ccc21 (configuration not stated)
inactive: LXFL 529 > 100 µM | M19-MEL > 100 µM | DLD-1 > 100 µM | HOP-18 > 100 µM | KM-20L2 > 100 µM | SNB-78 > 100 µM | DMS-273 > 100 µM | XF498 > 100 µM
